Measurements as given in patent US8836218B2, “Methods of treatment using combination therapy” (Ambit Biosciences Corp., priority 2009, dated 2014).
pEC50: −log10 of the molar value. Read-outs that look alike come from different tables or passages of the source.

Tests used:
[1] = system: MV4-11 solid tumor flank model; assay: Efficacy study of AC220 plus cytarabine in the MV4-11 solid tumor flank model; format: in vivo, SCID mouse; conditions: for sustained complete regressions: either agent alone (Groups 3 and 5): cytarabine 30 mkd IP Day 1 to 10, AC220 1 mkd PO Day 1 to 24
Description: Dosing was initiated on day 14 post-inoculation with groups of 10 animals per arm. The size of the tumors averaged about 222 mm^3. […] Cytarabine was delivered in a formulation of sterile saline (5 ml/kg/day, prepared weekly) at about 30 or about 60 mkd, QD, IP, and dose was adjusted for body weight. […] The clinical signs and body weight were measured twice weekly. White blood cell (WBC) counts determined at the end of the cytarabine dosing period and again 7 days post drug treatment. The study was carried out in one or multiple treatment cycles with cytarabine delivered for 10 days on each 24 day cycle. […] [table]

[2] = system: MV4-11 solid tumor flank model; assay: In vivo study of AC220 plus Aza-C in the MV4-11 solid tumor flank model; set-up: species or system SCID mouse; conditions: for flank tumor volume: AC220 0.5 mkd PO
Description: The size of the tumors averaged about 230 mm^3. […] Aza-C was delivered in a formulation of sterile saline (10 ml/kg/day, prepared in 5-day batches) at about 3 or about 1 mkd, QD, IP, and dose was adjusted for body weight. The average group starting body weight was about 20.6 g. The clinical signs and body weight were measured twice weekly. White blood cell (WBC) counts determined at the end of the Aza-C dosing period and again 7 days post drug treatment. The study was carried out in one or multiple treatment cycles with Aza-C delivered for 5 days on each 15 day cycle. […] [table]

MV4-11 cell lines [3] = assay: AC220 in combination with etoposide, cell viability study (CellTiter-Blue); format: cell-based; conditions: Homo sapiens; MV4-11, AC220 alone
Description: (§1) In this assay, the sequence of administration of AC220 and etoposide was examined for its cytotoxic effect. For the combination schedules tested, MV4-11 cell lines were cultured in RPMI medium with 10% fetal bovine serum and penicillin/streptomycin to a density of 3e5/mL to 1e6/mL and plated at 6e5 cells per well. […] Cytotoxicity was assessed using the CellTiter-Blue™ Viability Assay (#G8081 Promega). A combination index (CI) value was generated for each combination experiment using a commercially available software program (Calcusyn; Biosoft, Manchester, United Kingdom). The interaction of the two agents was analyzed using the median effect method of Chou and Talalay (Adv. Enyme Regul. 1984; 22:27-55). The Combination index and Weighted combination index were calculated as described in Chou, Pharmacol. Rev. 58:621-681, 2006.
As described by Chou, supra, the ranges of CI indicate synergism, additive effect, and antagonism as follows:
CI<1—synergism, CI=1—additive effect, and CI>1—antagonism.

MV4-11 cell lines [4] = assay: AC220 in combination with daunorubicin, cell viability study (CellTiter-Blue); format: cell-based; conditions: Homo sapiens; MV4-11, AC220 alone
Description: as §1, with “daunorubicin” for “etoposide”, “22:27-55).” for “22:27-55). The Combination index and Weighted combination index were calculated as described in Chou, Pharmacol. Rev. 58:621-681, 2006.”

MV4-11 cell lines [5] = assay: AC220 in combination with cladribine, cell viability study (CellTiter-Blue); format: cell-based; conditions: Homo sapiens; MV4-11, AC220 alone
Description: as §1, with “cladribine” for “etoposide”, “Iscove” for “RPMI”, “3e5/mL” for “3e5/mL to 1e6/mL”, “6e4” for “6e5”, “22:27-55).” for “22:27-55). The Combination index and Weighted combination index were calculated as described in Chou, Pharmacol. Rev. 58:621-681, 2006.”

MV4-11 cell lines [6] = assay: AC220 in combination with cytarabine, cell viability study (CellTiter-Blue); format: cell-based; conditions: Homo sapiens; MV4-11, AC220 alone
Description: In this assay, the sequence of administration of AC220 and cytarabine was examined for its cytotoxic effect. For the combination schedules tested, MV4-11 cell lines were cultured in Iscove medium with 10% fetal bovine serum and penicillin/streptomycin to a density of 3e5/mL and plated at 6e4 cells per well. […] Cytotoxicity was assessed using the CellTiter-Blue™ Viability Assay (#G8081 Promega). A combination index (CI) value was generated for each combination experiment using a commercially available software program (Calcusyn; Biosoft, Manchester, United Kingdom). The interaction of the two agents was analyzed using the median effect method of Chou and Talalay (Adv. Enyme Regul. 1984; 22:27-55).

MV4-11 cell lines [7] = conditions: MV4-11, cladribine alone; read-out: reported EC50 value; cited from earlier work
MV4-11 cell lines [8] = conditions: MV4-11, cytarabine alone; read-out: reported EC50 value; cited from earlier work
MV4-11 cell lines [9] = conditions: MV4-11, daunorubicin alone; read-out: reported EC50 value; cited from earlier work
MV4-11 cell lines [10] = conditions: MV4-11, etoposide alone; read-out: reported EC50 value; cited from earlier work

For `CC(C)(C)c1cc(NC(=O)Nc2ccc(-c3cn4c(n3)sc3cc(OCCN5CCOCC5)ccc34)cc2)no1` [AC220, N-(5-tert-butyl-isoxazol-3-yl)-N′-{4-[7-(2-morpholin-4-yl-ethoxy)imidazo[2,1-b][1,3]benzothiazol-2-yl]phenyl}urea], the sustained complete regressions [1] was “no sustained complete regressions”, the flank tumor volume ([2]; treatment at 15 days post inoculation) was “tumor stasis” and the flank tumor volume ([2]; treatment at 20 days post inoculation) was “tumor stasis”. For the same molecule, the pEC50 (MV4-11 cell lines [3]) was 9.46, the pEC50 (MV4-11 cell lines [4]) was 9.46 and the pEC50 (MV4-11 cell lines [5]) was 9.46. It also gave a pEC50 (MV4-11 cell lines [6]) of 9.46.
For `Nc1ncn([C@@H]2O[C@H](CO)[C@@H](O)[C@H]2O)c(=O)n1` [Aza-C, azacitidine], the “reduction in tumor volume” value ([2]; Aza-C at the 3 mkg dose, IP, Day 1 to 5) was roughly 50%.
In the case of `Nc1nc(Cl)nc2c1ncn2[C@H]1C[C@H](O)[C@@H](CO)O1` [cladribine], the pEC50 (MV4-11 cell lines [7]) is listed as 7.79.
For `Nc1ccn([C@@H]2O[C@H](CO)[C@@H](O)[C@@H]2O)c(=O)n1` [cytarabine], the sustained complete regressions [1] is given as “no sustained complete regressions”, the tumor burden ([1]; sequential, second administration of Ara-C in animals that had 2 weeks of AC220 treatment) is given as “capable of reducing tumor burden” and the pEC50 (MV4-11 cell lines [8]) is given as 6.42.
For `COc1cccc2c1C(=O)c1c(O)c3c(c(O)c1C2=O)C[C@@](O)(C(C)=O)C[C@@H]3O[C@H]1C[C@H](N)[C@H](O)[C@H](C)O1` [daunorubicin], the pEC50 (MV4-11 cell lines [9]) is listed as 7.90.
In the case of `COc1cc([C@@H]2c3cc4c(cc3[C@@H](O[C@@H]3O[C@@H]5CO[C@@H](C)O[C@H]5[C@H](O)[C@H]3O)[C@H]3COC(=O)[C@H]23)OCO4)cc(OC)c1O` [etoposide], the pEC50 (MV4-11 cell lines [10]) is given as 7.46.
